Test results: patent US11787825B2 (priority 2021, dated 2023)
Converted amounts (≈) assume the structure as drawn. Read-outs that look alike come from different tables or passages of the source. Marks after values point to notes of the source that are not given here.

Assays:
[1] = Beagle, in vivo, po; for Dog F % (suspension): pH 2
[2] = physchem; conditions: 25 °C, thermodynamic from solid
[3] = 0.1N HCL, 1.0% DMSO, 24-hour incubation at ambient temperature, maximum theoretical compound concentration 100 μM
[4] = 1×PBS buffer (pH 7.4), 1.0% DMSO, 24-hour incubation at ambient temperature, maximum theoretical compound concentration 100 μM
[5] = fasted state simulated intestinal fluid (FaSSIF), fassif
[6] = fed state simulated intestinal fluid (FeSSIF), fessif

| SMILES | pH 2 solubility (pH 2) | pH 7 solubility (pH 7.4) | Dog F % (suspension) [1] [%] | solubility ([2]; fassif) [µg/mL] | solubility ([2]; fessif) [µg/mL] | pH 2 solubility [3] [μM] | pH 7 solubility [4] [μM] | Dog F % (solution) [1] | solubility [2, 5] [µg/mL] | solubility [2, 6] [µg/mL] |
| --- | --- | --- | --- | --- | --- | --- | --- | --- | --- | --- |
| Cc1cc(C(=O)O)cc(OP(=O)(O)O)c1C(C)(C)CC(=O)N(c1nn(CC(F)(F)F)c2c(-c3ccc(C#CC(C)(C)S(C)(=O)=O)nc3[C@H](Cc3cc(F)cc(F)c3)NC(=O)Cn3nc(C(F)(F)F)c4c3C(F)(F)[C@@H]3C[C@H]43)ccc(Cl)c12)S(C)(=O)=O [Compound 49, 4-(4-(N-(4-chloro-7-(2-((S)-1-(2-((3bS,4aR)-5,5-difluoro-3-(trifluoromethyl)-3b,4,4a,5-tetrahydro-1H-cyclopropa[3,4]cyclopenta[1,2-c]pyrazol-1-yl)acetamido)-2-(3,5-difluorophenyl)ethyl)-6-(3-methyl-3-(methylsulfonyl)but-1-yn-1-yl)pyridin-3-yl)-1-(2,2,2-trifluoroethyl)-1H-indazol-3-yl)methylsulfonamido)-2-methyl-4-oxobutan-2-yl)-3-methyl-5-(phosphonooxy)benzoic acid] | 3/100 μM | 3/100 μM | 20 | 384 (≈ 299 µM) | 390 (≈ 304 µM) |  |  |  |  |  |
| CN(CCCC(=O)N(c1nn(CC(F)(F)F)c2c(-c3ccc(C#CC(C)(C)S(C)(=O)=O)nc3[C@H](Cc3cc(F)cc(F)c3)NC(=O)Cn3nc(C(F)(F)F)c4c3C(F)(F)[C@@H]3C[C@H]43)ccc(Cl)c12)S(C)(=O)=O)C(=O)OCOP(=O)(O)O [Compound 32, (phosphonooxy)methyl (4-(N-(4-chloro-7-(2-((S)-1-(2-((3bS,4aR)-5,5-difluoro-3-(trifluoromethyl)-3b,4,4a,5-tetrahydro-111-cyclopropa[3,4]cyclopenta [1,2-c]pyrazol-1-yl)acetamido)-2-(3,5-difluorophenyl)ethyl)-6-(3-methyl-3-(methylsulfonyl)but-1-yn-1-yl)pyridin-3-yl)-1-(2,2,2-trifluoroethyl)-1H-indazol-3-yl)methylsulfonamido)-4-oxobutyl)(methyl)carbamate] |  |  |  |  |  | 1 | 100 | 31^b % | 194 (≈ 159 µM) | 210 (≈ 172 µM) |
| CC(C)(Cc1ccccc1OP(=O)(O)O)C(=O)N(c1nn(CC(F)(F)F)c2c(-c3ccc(C#CC(C)(C)S(C)(=O)=O)nc3[C@H](Cc3cc(F)cc(F)c3)NC(=O)Cn3nc(C(F)(F)F)c4c3C(F)(F)[C@@H]3C[C@H]43)ccc(Cl)c12)S(C)(=O)=O [Compound 46, 2-(3-(N-(4-chloro-7-(2-((S)-1-(2-((3bS,4aR)-5,5-difluoro-3-(trifluoromethyl)-3b,4,4a,5-tetrahydro-1H-cyclopropa[3,4]cyclopenta[1,2-c]pyrazol-1-yl)acetamido)-2-(3,5-difluorophenyl)ethyl)-6-(3-methyl-3-(methylsulfonyl)but-1-yn-1-yl)pyridin-3-yl)-1-(2,2,2-trifluoroethyl)-1H-indazol-3-yl)methylsulfonamido)-2,2-dimethyl-3-oxopropyl)phenyl dihydrogen phosphate] | 1/66 μM | 1/66 μM | 10 | 700 | > 2150 |  |  |  |  |  |
| CC(C)(CCN(CC(=O)O)C(=O)OCOP(=O)(O)O)C(=O)N(c1nn(CC(F)(F)F)c2c(-c3ccc(C#CC(C)(C)S(C)(=O)=O)nc3[C@H](Cc3cc(F)cc(F)c3)NC(=O)Cn3nc(C(F)(F)F)c4c3C(F)(F)[C@@H]3C[C@H]43)ccc(Cl)c12)S(C)(=O)=O [Compound 43, N-(4-(N-(4-chloro-7-(2-((S)-1-(2-((3bS,4aR)-5,5-difluoro-3-(trifluoromethyl)-3b,4,4a,5-tetrahydro-1H-cyclopropa[3,4]cyclopenta[1,2-c]pyrazol-1-yl)acetamido)-2-(3,5-difluorophenyl)ethyl)-6-(3-methyl-3-(methylsulfonyl)but-1-yn-1-yl)pyridin-3-yl)-1-(2,2,2-trifluoroethyl)-1H-indazol-3-yl)methylsulfonamido)-3,3-dimethyl-4-oxobutyl)-N-(((phosphonooxy)methoxy)carbonyl)glycine] |  |  | 23 |  |  | 2 | 100 |  | 2900 (≈ 2250 µM) | > 5770 |
